Our source for the Bliss excess values is the supplement of paper PMC11061612.

Assay in all cases: Bliss excess, mean over the matrix (fraction); higher = more synergy
In assay [1] the test system is BHT-101 (Thyroid Gland Carcinoma). Summed up:
(§1)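 Cell lines in DMEM/F12 or RPMI with 10% FBS were plated in 1536-well plates, held 24 hours at 37°C, 5% CO2, then given two-drug dose matrices for 72 hours (DMSO typically 0.2%). Viability was read by CellTiter-Glo 2.0 luminescence and scaled as inhibition from 0 (vehicle wells) to 1 (blank wells). Combination Emax is the second-highest inhibition in the matrix; Bliss excess is observed combination effect minus expected EA + EB − EA·EB, EA and EB being single-agent effects.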

In assay [2] the test system is C-33-A (Cervical Carcinoma). Summed up: as §1
For assay [3], the system named is CPC-N (Small Cell Lung Carcinoma). Summed up: as §1
A further assay concerns ES6 (Ewing's Sarcoma). Summed up: as §1
Another assay concerns KALS-1 (Glioblastoma). Summed up: as §1
Assay [4] concerns LS-1034 (Colorectal Carcinoma). Summed up: as §1
The subject of assay [5] is MDA-MB-415 (Breast Carcinoma). Summed up: as §1
Assay [6] relates to MM1S (Plasma Cell Myeloma). Summed up:
as §1

The test system of assay [7] is MOLP-8 (Plasma Cell Myeloma). Summed up: as §1
The test system of assay [8] is MS-1 (Small Cell Lung Carcinoma). Summed up: as §1
Assay [9] relates to NCI-H1876 (Small Cell Lung Carcinoma). Summed up:
as §1

Assay [10] relates to NCI-H1963 (Small Cell Lung Carcinoma). Summed up: as §1
For assay [11], the system named is NCI-H3118 (Head and Neck Carcinoma). Summed up: as §1
The subject of assay [12] is OVCAR-3 (Ovarian Carcinoma). Summed up:
as §1

In assay [13] the test system is PA-TU-8988T (Pancreatic Carcinoma). Summed up:
as §1

Assay [14] deals with Raji (Burkitt's Lymphoma). Summed up: as §1
Assay [15] concerns SNU-C2B (Colorectal Carcinoma). Summed up: as §1
Assay [16] concerns T84 (Colorectal Carcinoma). Summed up:
as §1

Assay [17] deals with TUR (Acute Myeloid Leukemia). Summed up:
as §1

The subject of a further assay is UACC-257 (Melanoma). Summed up:
as §1

As for `Cc1cc2ncnn2cc1Nc1ncc2c(n1)n(C1CCOCC1)c(=O)n2C` [AZD7648] + O=C(c1cc(Cc2n[nH]c(=O)c3ccccc23)ccc1F)N1CCN(C(=O)C2CC2)CC1 [Olaparib] (first compound max 10 µM, 7x7, partner max 10 µM), the Bliss excess in assay [1] was -0.0071; in [2] it was -0.0107; in [3] it was 0.0169; with ES6 (Ewing's Sarcoma), -0.0341; in the assay on KALS-1 (Glioblastoma), -0.0225; in [4] it was -0.0353. The Bliss excess is -0.0121 in assay [5]; 0.0141 in assay [6]; -0.0267 in assay [7]; -0.0087 in [8]; 0.0216 in assay [9]; -0.0052 in [10]. The Bliss excess is -0.0223 in assay [11]; -0.0257 in [12]; -0.0047 in assay [13]; 0.0011 in assay [14]; -0.0432 in assay [15]; -0.0256 in [16]. In addition, the Bliss excess in assay [17] is 0.0054; in the assay on UACC-257 (Melanoma), -0.0422.
Consider `CN(C)CCCOc1ccc(-c2ccc3ncc4c(c3c2)n(C2CCOCC2)c(=O)n4C)cn1` [AZD0156] + CCN(CCO)CCCOc1ccc2c(Nc3cc(CC(=O)Nc4cccc(F)c4)[nH]n3)ncnc2c1 [AZD2811] (first compound max 1 µM, 7x7, partner max 1 µM), for which the Bliss excess was -0.0273 in assay [1]; -0.0142 in [2]; 0.0049 in assay [3]; -0.0766 in the assay on ES6 (Ewing's Sarcoma); -0.0245 in the assay on KALS-1 (Glioblastoma); -0.0261 in [4]. In addition, the Bliss excess in assay [5] was -0.0087; in assay [6] it was 0.0135; in [7], -0.0308; in [8] it was 0.0331; in assay [9], -0.0557; in assay [10], -0.0463. Besides, the Bliss excess in assay [11] was -0.0316; in assay [12], -0.01; in assay [13], 0.0079; in assay [14], 0.0082; in assay [15], -0.0227; in assay [16], -0.0248. The Bliss excess in [17] was 0.0563; in the assay with UACC-257 (Melanoma), -0.039.
Take `Cc1c2c(nn1C)CSCc1cc(n(C)n1)CSc1cc(c3ccccc3c1)OCCCc1c(C(=O)O)n(C)c3c-2c(Cl)ccc13` [AZD5991] + CN(C)CCCOc1ccc(-c2ccc3ncc4c(c3c2)n(C2CCOCC2)c(=O)n4C)cn1 [AZD0156] (first compound max 1 µM, 7x7, partner max 1 µM): the Bliss excess in assay [1] is 0.0638; in assay [2], -0.0089; in assay [3], -0.0129; with ES6 (Ewing's Sarcoma), -0.0113; with KALS-1 (Glioblastoma) it was 0.0151; in [4] it was -0.0032. The Bliss excess in [5] was -0.0183; in [6], 0.0391; in assay [7], 0.0086; in assay [8], -0.0347; in assay [9] it was 0.0541; in [10] it was 0.0225. Further, the Bliss excess in assay [11] was 0.0092; in [12] it was 0.0405; in assay [13], 0.0146; in [14], -0.0213; in [15], 0.0051; in [16], -0.0112. Besides, the results for the Bliss excess (in assay [17]; with UACC-257 (Melanoma)) were 0.0377 and -0.0064, respectively.
In the case of `CN(CCO)CC[C@H](CSc1ccccc1)Nc1ccc(S(=O)(=O)NC(=O)c2ccc(N3CCC([C@@H](O)c4ccccc4-c4ccc(Cl)cc4)CC3)cc2)cc1S(=O)(=O)C(F)(F)F` [AZD4320] + Cc1cc2ncnn2cc1Nc1ncc2c(n1)n(C1CCOCC1)c(=O)n2C [AZD7648] (first compound max 1 µM, 7x7, partner max 10 µM), the Bliss excess is -0.0361 in assay [1]; -0.0164 in [2]; 0.0364 in assay [3]; -0.0494 in the assay with ES6 (Ewing's Sarcoma); -0.0096 in the assay with KALS-1 (Glioblastoma); -0.0403 in assay [4]. Also, the Bliss excess in [5] was -0.0243; in [6], 0.0657; in assay [7], -0.0125; in assay [8] it was -0.0409; in assay [9], 0.0162; in assay [10], 0.0483. Besides, the Bliss excess in assay [11] was -0.0392; in assay [12], -0.0521; in assay [13] it was -0.043; in assay [14], 0.0189; in assay [15], -0.0126; in [16] it was -0.0314. Besides, the figures for the Bliss excess (in assay [17]; with UACC-257 (Melanoma)) were 0.0088 and -0.0351, respectively.
In the case of `COc1nnc2ccc(N3CCC(c4ccc(OCCN5CCN(C)C(=O)[C@H]5C)cc4)CC3)nn12` [AZD5153] + C=CCn1c(=O)c2cnc(Nc3ccc(N4CCN(C)CC4)cc3)nc2n1-c1cccc(C(C)(C)O)n1 [AZD1775] (first compound max 1 µM, partner max 1 µM), the Bliss excess in assay [1] was -0.0885; in [2], -0.0546; in assay [3], -0.0862; with ES6 (Ewing's Sarcoma), -0.0553; in the assay with KALS-1 (Glioblastoma) it was -0.12; in assay [4], -0.0549. The Bliss excess was -0.0878 in [5]; -0.0412 in assay [6]; -0.0204 in assay [7]; -0.0687 in [8]; 0.0224 in assay [9]; -0.0427 in [10]. For the same compound, the Bliss excess in assay [11] was -0.0981; in assay [12], 0.0107; in assay [13], -0.0738; in assay [14], -0.105; in assay [15] it was -0.035; in assay [16], -0.0643. For the same compound, the Bliss excess in assay [17] was -0.0252; in the assay on UACC-257 (Melanoma), 0.0034.
With `NC1(C(=O)N[C@@H](CCO)c2ccc(Cl)cc2)CCN(c2ncnc3[nH]ccc23)CC1` [Capivasertib] + COc1nnc2ccc(N3CCC(c4ccc(OCCN5CCN(C)C(=O)[C@H]5C)cc4)CC3)nn12 [AZD5153] (first compound max 10 µM, 7x7, partner max 1 µM), the Bliss excess in assay [1] was -0.0479; in assay [2], 0.0321; in [3], -0.0348; in the assay with ES6 (Ewing's Sarcoma), 0.0103; with KALS-1 (Glioblastoma) it was -0.0749; in assay [4], 0.0201. Further, the Bliss excess in assay [5] was 0.0467; in [6] it was 0.0564; in [7] it was 0.0092; in assay [8], -0.0737; in [9] it was 0.0774; in assay [10] it was 0.0036. Further, the Bliss excess in [11] is -0.0144; in [12], 0.0189; in assay [13], -0.0603; in assay [14], 0.0469; in assay [15], -0.0442; in assay [16], -0.0695. The Bliss excess is 0.0661 in [17] and -0.0072 in the assay on UACC-257 (Melanoma).
Consider `COc1cccc(OCCCN)c1-c1cc(Nc2cnc(C#N)cn2)n[nH]1` [Prexasertib] + Cc1cc2ncnn2cc1Nc1ncc2c(n1)n(C1CCOCC1)c(=O)n2C [AZD7648] (first compound max 1 µM, 7x7, partner max 10 µM), for which the Bliss excess is 0.0399 in assay [1]; -0.0283 in assay [2]; -0.0459 in assay [3]; 0.0027 with ES6 (Ewing's Sarcoma); -0.0363 in the assay with KALS-1 (Glioblastoma); -0.0229 in [4]. Moreover, the Bliss excess in assay [5] was -0.0331; in [6], -0.0108; in assay [7], -0.013; in [8], -0.0228; in [9], -0.0713; in [10] it was -0.0075. Besides, the Bliss excess was -0.0501 in assay [11]; -0.0213 in assay [12]; 0.0389 in [13]; -0.0135 in [14]; -0.0356 in [15]; -0.0904 in assay [16]. The Bliss excess was -0.0005 in assay [17] and -0.0111 with UACC-257 (Melanoma).
